The text below walks through data of patent US20250340537A1, “PHARMACEUTICALLY ACTIVE COMPOUNDS, COMPOSITIONS, AND METHODS FOR MODULATING PENDRIN” (ARBORMED Co., Ltd., priority 2022, published 2025).

Assay [1] concerns the target T1, H723R-hPDS (Homo sapiens, UniProt O43511, H723R).
T1 construct: expressed in transfected cells; host or cells: Panc1 (Panc1^hPDS-H723R)
T1 sequence (O43511 1-780 H723R): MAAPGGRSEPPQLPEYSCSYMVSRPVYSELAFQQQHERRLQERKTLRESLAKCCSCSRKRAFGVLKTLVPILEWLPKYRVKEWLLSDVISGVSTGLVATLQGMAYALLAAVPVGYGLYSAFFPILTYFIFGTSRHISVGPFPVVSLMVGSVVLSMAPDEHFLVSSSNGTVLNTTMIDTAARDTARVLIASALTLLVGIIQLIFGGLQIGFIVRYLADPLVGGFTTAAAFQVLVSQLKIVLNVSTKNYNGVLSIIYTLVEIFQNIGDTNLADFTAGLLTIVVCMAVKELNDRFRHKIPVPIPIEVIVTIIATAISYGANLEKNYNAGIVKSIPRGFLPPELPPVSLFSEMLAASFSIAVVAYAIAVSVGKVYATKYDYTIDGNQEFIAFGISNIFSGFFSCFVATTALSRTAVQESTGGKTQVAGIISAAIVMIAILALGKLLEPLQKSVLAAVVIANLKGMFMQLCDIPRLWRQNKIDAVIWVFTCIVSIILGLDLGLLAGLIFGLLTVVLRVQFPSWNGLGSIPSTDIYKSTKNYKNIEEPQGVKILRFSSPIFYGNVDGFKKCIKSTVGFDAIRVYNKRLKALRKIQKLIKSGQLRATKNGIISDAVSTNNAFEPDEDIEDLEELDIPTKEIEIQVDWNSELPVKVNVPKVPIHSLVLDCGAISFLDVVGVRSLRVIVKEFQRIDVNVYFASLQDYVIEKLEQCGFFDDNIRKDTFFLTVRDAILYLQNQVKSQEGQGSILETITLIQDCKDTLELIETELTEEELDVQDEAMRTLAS
Put plainly: Surface biotinylation assay. The class given is cell-based. The note with it: Panc1 hPDS-H723R cells, 24 h treatment. From the text: Surface biotinylation is a commonly used technique to specifically isolate plasma membrane proteins using a modified biotin in a form that is easy to bind with proteins. Sulfo-NHS-SS-biotin is a generally used reagent in surface biotinylation due to its impermeability and water solubility. In cool conditions, the extracellular domain of membrane proteins is covalently binding with the reactive biotin ester. These proteins are separated from the whole lysate via a biotin-streptavidin response. In this process, we can validate the increasing rate of the expression level of mutant pendrin in the plasma membrane.
Panc1^parental, Panc1^hPDS-WT and Panc1^hPDS-H723R cells were cultured in high glucose DMEM medium supplemented with 10% fetal bovine serum and 1% antibiotics. 24 hours after seeding in 6-well plates, cells were treated as indicated for 24 h. Cells were washed in PBS and incubated on ice with 0.3 mg/ml biotin in PBS. After 35 min, 1% BSA in PBS, D.W mixture (1:1) was added to cells, and cells were incubated for 10 min. Cells were washed and lysed in lysis buffer. The lysates were sonicated for 20 seconds, and not boiled. After centrifugated, the supernatants were collected and quantified via BCA analysis. The quantified supernatants were added to 10% avidin beads in PBS and incubated overnight at 4° C. After incubation, the below steps were repeated 4 times: i) centrifugation, ii) removing the supernatant, iii) washing with lysis buffer. After the last centrifugation and removing the supernatant, the sample buffer mixed with reducing buffer was added to biotin-avidin mixtures. The elution was accomplished in the 38° C. bioshaker for 40 min and the supernatant was collected. The supernatant was separated by SDS-PAGE and transferred to an Immobilon membrane. After incubation in 5% BSA solution to prevent nonspecific binding, the membrane was incubated with specific antibodies overnight. Then, the membrane was washed with TBST buffer and incubated with HRP-conjugated anti-rabbit or -mouse antibody for 1 hour. The ECL buffer and iBright were used for the visualization of protein bands. The respective protein band intensity was quantified by densitometric analysis using the NIH ImageJ program.
It is indicated as expression % with the following key: A=Expression % greater than 100%; B=Expression % greater than 50%, but less than 100%; C=Expression % less than 50%.

The target of assay [2] is T2, H723R-pendrin (Homo sapiens, UniProt O43511, H723R).
T2 construct: expressed in transfected cells; host or cells: PANC-1
T2 sequence (O43511 1-780 H723R): T1 sequence (O43511 1-780 H723R)
Put plainly: YFP fluorescence quenching assay (Cl−/I− exchange activity of pendrin). Format: cell-based. The note with it: PANC-1 cells stably expressing human H723R-pendrin and YFP-F46L/H148Q/I152L; compound incubation 20-24 hours; iodide influx. The procedure, abridged: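 PANC-1 cells stably co-expressing human H723R-pendrin and YFP-F46L/H148Q/I152L, treated with compounds for 20-24 h at 37 °C. Initial iodide influx rate after NaI-substituted HEPES buffer (pH 7.4) addition, taken from the initial slope of YFP fluorescence quench by nonlinear regression. EC50 reported in bins.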

For the compound `COc1cc(-c2nccc(C3=C(N)N(CC4CCCC4)CC3=O)n2)ccc1O` [Compound 105], the “Surface expression % of H723R-hPDS relative to WT-hPDS (Glycosylated form pendrin)” value in assay [1] (3 uM) and in assay [1] (10 uM) was “A (A=Expression % greater than 100%)” in each case. Moreover, in assay [2], the EC50 (commonly the concentration that produces a half-maximal response) is less than 5 µM.

With `NC1=C(c2cncc(-c3ccc(O)c(O)c3)n2)C(=O)CN1CC1CCCC1` [Compound 18], the “Surface expression % of H723R-hPDS relative to WT-hPDS (Glycosylated form pendrin)” value in assay [1] (3 uM) and in assay [1] (10 uM) was “A (A=Expression % greater than 100%)” in each case. In addition, the EC50 in assay [2] was less than 5 µM.

For `NC1=C(c2cncc(-c3ccc(O)c(O)c3)n2)C(=O)CN1c1ccccc1Cl` [Compound 9], the “Surface expression % of H723R-hPDS relative to WT-hPDS (Glycosylated form pendrin)” value in assay [1] (3 uM) and in assay [1] (10 uM) was “A (A=Expression % greater than 100%)” in each case. In addition, the EC50 in assay [2] was less than 5 µM.
